Values quoted from earlier work in PubChem BioAssay AID1259409 (Chemical Carcinogenesis Research Information System (CCRIS), 2018).

Test system: rodent chemically induced tumor inhibition, incidence and multiplicity
Assay: CCRIS tumor inhibitor studies
Settings: Route [Inhibitor]: ORAL, Species: RAT

For `C[C@]12CC[C@H](O)CC1=CC[C@@H]1[C@@H]2CC[C@]2(C)C(=O)CC[C@@H]12`, the “tumour outcome (control, treated, inhibition, significance)” value (Carcinogen: CYPROTERONE ACETATE [427-51-0], TESTOSTERONE PROPIONATE [57-85-2], N-METHYL-N-NITROSOUREA [684-93-4], Carcinogen: CYPROTERONE ACETATE [427-51-0], TESTOSTERONE PROPIONATE [57-85-2], N-METHYL-N-NITROSOUREA [684-93-4], Dose [Inhibitor]: 1000 MG/KG IN DIET FOR 13 WK BEGINNING 1 WK PRIOR TO MNU DOSE (STUDY DURATION: 14 MONTHS), Strain/Sex: WISTAR-UNILEVER/MALE, Target Tissue: Type of Lesion: PROSTATE AND SEMINAL VESICLE: ADENOCARCINOMA OR CARCINOSARCOMA, Dose [Carcinogen]: 50 MG/KB BW CA BY GAVAGE 1X/D FOR 21 D, 100 MG/KG BW TP SC 1X/D FOR 3 D BEGINNING 1 D POST LAST CA DOSE, 50 MG/KG BW MNU, Dose [Carcinogen]: 50 MG/KB BW CA BY GAVAGE 1X/D FOR 21 D, 100 MG/KG BW TP SC 1X/D FOR 3 D BEGINNING 1 D POST LAST CA DOSE, 50 MG/KG BW MNU, Promoter: TESTOSTERONE (CRYSTALLINE)) is given as 27/32 (84%), 27/34 (79%), 6%, not significant, the “tumour outcome (control, treated, inhibition, significance)” value (Carcinogen: CYPROTERONE ACETATE [427-51-0], TESTOSTERONE PROPIONATE [57-85-2], N-METHYL-N-NITROSOUREA [684-93-4], Carcinogen: CYPROTERONE ACETATE [427-51-0], TESTOSTERONE PROPIONATE [57-85-2], N-METHYL-N-NITROSOUREA [684-93-4], Dose [Inhibitor]: 2000 MG/KG IN DIET FOR 13 WK BEGINNING 1 WK PRIOR TO MNU DOSE (STUDY DURATION: 14 MONTHS), Strain/Sex: WISTAR-UNILEVER/MALE, Target Tissue: Type of Lesion: PROSTATE AND SEMINAL VESICLE: ADENOCARCINOMA OR CARCINOSARCOMA, Dose [Carcinogen]: 50 MG/KB BW CA BY GAVAGE 1X/D FOR 21 D, 100 MG/KG BW TP SC 1X/D FOR 3 D BEGINNING 1 D POST LAST CA DOSE, 30 MG/KG BW MNU, Dose [Carcinogen]: 50 MG/KB BW CA BY GAVAGE 1X/D FOR 21 D, 100 MG/KG BW TP SC 1X/D FOR 3 D BEGINNING 1 D POST LAST CA DOSE, 30 MG/KG BW MNU, Promoter: TESTOSTERONE (CRYSTALLINE)) is given as 24/30 (80%), 14/29 (48%), 40%, p<0.05 and the “tumour outcome (control, treated, inhibition, significance)” value (Carcinogen: CYPROTERONE ACETATE [427-51-0], TESTOSTERONE PROPIONATE [57-85-2], N-METHYL-N-NITROSOUREA [684-93-4], Carcinogen: CYPROTERONE ACETATE [427-51-0], TESTOSTERONE PROPIONATE [57-85-2], N-METHYL-N-NITROSOUREA [684-93-4], Dose [Inhibitor]: 2000 MG/KG IN DIET FOR 13 WK BEGINNING 1 WK PRIOR TO MNU DOSE (STUDY DURATION: 14 MONTHS), Strain/Sex: WISTAR-UNILEVER/MALE, Target Tissue: Type of Lesion: PROSTATE AND SEMINAL VESICLE: ADENOCARCINOMA OR CARCINOSARCOMA, Dose [Carcinogen]: 50 MG/KB BW CA BY GAVAGE 1X/D FOR 21 D, 100 MG/KG BW TP SC 1X/D FOR 3 D BEGINNING 1 D POST LAST CA DOSE, 50 MG/KG BW MNU, Dose [Carcinogen]: 50 MG/KB BW CA BY GAVAGE 1X/D FOR 21 D, 100 MG/KG BW TP SC 1X/D FOR 3 D BEGINNING 1 D POST LAST CA DOSE, 50 MG/KG BW MNU, Promoter: TESTOSTERONE (CRYSTALLINE)) is given as 27/32 (84%), 22/32 (69%), 18%, not significant. For the same compound, the “tumour outcome (control, treated, inhibition, significance)” value (Carcinogen: CYPROTERONE ACETATE [427-51-0], TESTOSTERONE PROPIONATE [57-85-2], N-METHYL-N-NITROSOUREA [684-93-4], Carcinogen: CYPROTERONE ACETATE [427-51-0], TESTOSTERONE PROPIONATE [57-85-2], N-METHYL-N-NITROSOUREA [684-93-4], Dose [Inhibitor]: 2000 MG/KG IN DIET FOR 13 WK BEGINNING 20 WK POST MNU DOSE (STUDY DURATION: 14 MONTHS), Strain/Sex: WISTAR-UNILEVER/MALE, Target Tissue: Type of Lesion: PROSTATE AND SEMINAL VESICLE: ADENOCARCINOMA OR CARCINOSARCOMA, Dose [Carcinogen]: 50 MG/KB BW CA BY GAVAGE 1X/D FOR 21 D, 100 MG/KG BW TP SC 1X/D FOR 3 D BEGINNING 1 D POST LAST CA DOSE, 30 MG/KG BW MNU, Dose [Carcinogen]: 50 MG/KB BW CA BY GAVAGE 1X/D FOR 21 D, 100 MG/KG BW TP SC 1X/D FOR 3 D BEGINNING 1 D POST LAST CA DOSE, 30 MG/KG BW MNU, Promoter: TESTOSTERONE (CRYSTALLINE)) was 24/30 (80%), 15/30 (50%), 38%, p<0.05, the “tumour outcome (control, treated, inhibition, significance)” value (Carcinogen: CYPROTERONE ACETATE [427-51-0], TESTOSTERONE PROPIONATE [57-85-2], N-METHYL-N-NITROSOUREA [684-93-4], Carcinogen: CYPROTERONE ACETATE [427-51-0], TESTOSTERONE PROPIONATE [57-85-2], N-METHYL-N-NITROSOUREA [684-93-4], Dose [Inhibitor]: 2000 MG/KG IN DIET FOR 13 WK BEGINNING 40WK POST MNU DOSE (STUDY DURATION: 14 MONTHS), Strain/Sex: WISTAR-UNILEVER/MALE, Target Tissue: Type of Lesion: PROSTATE AND SEMINAL VESICLE: ADENOCARCINOMA OR CARCINOSARCOMA, Dose [Carcinogen]: 50 MG/KB BW CA BY GAVAGE 1X/D FOR 21 D, 100 MG/KG BW TP SC 1X/D FOR 3 D BEGINNING 1 D POST LAST CA DOSE, 30 MG/KG BW MNU, Dose [Carcinogen]: 50 MG/KB BW CA BY GAVAGE 1X/D FOR 21 D, 100 MG/KG BW TP SC 1X/D FOR 3 D BEGINNING 1 D POST LAST CA DOSE, 30 MG/KG BW MNU, Promoter: TESTOSTERONE (CRYSTALLINE)) was 24/30 (80%), 18/30 (60%), 25%, not significant and the “tumour outcome (control, treated, inhibition, significance)” value (Carcinogen: DIETHYLNITROSAMINE, 55-18-5, ACETYLAMINOFLUORENE, 53-96-3, Carcinogen: DIETHYLNITROSAMINE, 55-18-5, ACETYLAMINOFLUORENE, 53-96-3, Dose [Inhibitor]: 0, 0.6% IN DIET FOR A MAXIMUM OF 15 WK BEGINNING 15 WK POST INITIATION (STUDY DURATION: 56 WK), Strain/Sex: F344/MALE, Target Tissue: Type of Lesion: LIVER: CARCINOMA, Dose [Carcinogen]: 150 MG/KG DEN ONCE THEN 2 WK LATER 0.02% AAF IN DIET FOR 15 D WITH A PARTIAL HEPATECTOMY MIDWAY THROUGH TREATMENT, Promoter: NONE USED) was 8/8 (100%), 1/4 (25%), 75%, not calculated. The “tumour outcome (control, treated, inhibition, significance)” value (Carcinogen: DIETHYLNITROSAMINE, 55-18-5, N-METHYL-N-NITROSOUREA, 684-93-5, N-BUTYL-N-(4-HYDROXYBUTYL)NITROSAMINE, 3817-11-6, 1,2-DIM, Carcinogen: DIETHYLNITROSAMINE, 55-18-5, N-METHYL-N-NITROSOUREA, 684-93-5, N-BUTYL-N-(4-HYDROXYBUTYL)NITROSAMINE, 3817-11-6, 1,2-DIM, Dose [Inhibitor]: 0, 0.3% IN DIET FOR 23 WK BEGINNING 1 WK POST CARCINOGEN TREATMENT (STUDY DURATION: 28 WK), Strain/Sex: F344/MALE, Target Tissue: Type of Lesion: LARGE INTESTINE: ADENOMA, Dose [Carcinogen]: 100 MG/KG BW DEN ONCE, 20 MG/KG BW MNU ONCE ON DAYS 6,9, AND 12, 0.05% BBN IN DRINKING WATER FOR FIRST TWO WK, 40 MG/KG, Dose [Carcinogen]: 100 MG/KG BW DEN ONCE, 20 MG/KG BW MNU ONCE ON DAYS 6,9, AND 12, 0.05% BBN IN DRINKING WATER FOR FIRST TWO WK, 40 MG/KG, Promoter: NONE USED) was 3/20 (15%), 4/20 (20%), -33%, not significant.
